# Measurements as given in ChEMBL document CHEMBL1149638, “Synthesis of novel antitumoural analogues of dysidiolide from ent-halimic acid” (Bioorg Med Chem, 2007).
# What was measured:
# Format in all cases: functional, cell-based
# [1] = system: A549; assay: Antiproliferative activity against human A549 cells after 72 hrs by XTT assay; details: A549, 72 h
# [2] = system: HT-29; assay: Antiproliferative activity against human HT29 cells after 72 hrs by XTT assay; details: HT-29, 72 h
# [3] = system: HeLa; assay: Antiproliferative activity against human HeLa cells after 72 hrs by XTT assay
# [4] = system: HL-60; assay: Antiproliferative activity against human HL60 cells after 72 hrs by XTT assay; details: HL-60, 72 h
Structure (SMILES),IC50 [1],IC50 [2],IC50 [3],IC50 [4]
C=C(C)CCC[C@]1(C)C2=CCC[C@](C)(C[C@H](OC(C)=O)C3=CC(=O)OC3O)[C@H]2CC[C@H]1C (stereo not given in full),4.5 µM,4.2 µM,2.6 µM,3 µM
COC/C=C(\C)CC[C@]1(C)C2=C(CC[C@H]1C)C1(C)CCC2[C@@](O)(C2=CC(=O)OC2O)C1 (stereo not given in full),28.2 µM,18.7 µM,26.5 µM,18.7 µM
C=C(C)CC[C@]1(C)C2=CCC[C@](C)(C[C@@H](O)C3=CC(=O)OC3O)[C@H]2CC[C@H]1C (stereo not given in full),4.4 µM,3.6 µM,5.4 µM,3.3 µM
C=C(C)CC[C@]1(C)C2=CCC[C@](C)(C[C@@H](O)c3ccoc3)[C@H]2CC[C@H]1C,34 µM,30 µM,30.2 µM,28.7 µM
C=C(C)CCC[C@]1(C)C2=CCC[C@](C)(C[C@H](O)c3ccoc3)[C@H]2CC[C@H]1C,66 µM,63.1 µM,59.4 µM,31.2 µM
CC(C)=CCC[C@]1(C)C2=CCC[C@](C)(CC(=O)c3ccoc3)[C@H]2CC[C@H]1C,91 µM,82.3 µM,54.5 µM,57.8 µM
C=C(C)CCC[C@]1(C)C2=CCC[C@](C)(C[C@H](O)C3=CC(=O)OC3O)[C@H]2CC[C@H]1C (stereo not given in full),3.2 µM,3 µM,3.8 µM,3 µM
C=C(C)CCC[C@]1(C)C2=CCC[C@](C)(C[C@@H](O)C3=CC(=O)OC3O)[C@H]2CC[C@H]1C (stereo not given in full),3.8 µM,2.3 µM,2.6 µM,3.2 µM
C=C(C)CC[C@]1(C)C2=CCC[C@](C)(C[C@H](O)C3=CC(=O)OC3O)[C@H]2CC[C@H]1C (stereo not given in full),4.5 µM,3.2 µM,4.8 µM,3.2 µM
C=C(C)CCC[C@]1(C)C2=C(CC[C@H]1C)C1(C)CCC2[C@@](O)(C2=CC(=O)OC2O)C1 (stereo not given in full),3 µM,2.9 µM,3.1 µM,0.3 µM
C=C(C)CC[C@]1(C)C2=CCC[C@](C)(C[C@H](O)c3ccoc3)[C@H]2CC[C@H]1C,34 µM,30 µM,30.2 µM,28.7 µM
C=C(C)CCC[C@]1(C)C2=CCC[C@](C)(C[C@@H](O)c3ccoc3)[C@H]2CC[C@H]1C,66 µM,63.1 µM,59.4 µM,31.2 µM
C=C(C)CCC[C@]1(C)C2=CCC[C@](C)(CC(=O)c3ccoc3)[C@H]2CC[C@H]1C,> 100 µM,> 100 µM,> 100 µM,> 100 µM
C=C(C)CC[C@]1(C)C2=CCC[C@](C)(C[C@@H](OC(C)=O)C3=CC(=O)OC3O)[C@H]2CC[C@H]1C (stereo not given in full),11.1 µM,4.8 µM,6.7 µM,3.3 µM
C=C(C)CCC[C@]1(C)C2=CCC[C@](C)(C[C@@H](OC(C)=O)C3=CC(=O)OC3O)[C@H]2CC[C@H]1C (stereo not given in full),3.2 µM,2.9 µM,3.5 µM,3.2 µM
